Assay results reported in patent US12522594B2, “2-heteroaryl-3-oxo-2,3-dihydropyridazine-4-carboxamides for the treatment of cancer” (Deutsches Krebsforschungszentrum, priority 2017, dated 2026).

What was measured:
AHR [1] = molecular target: T1, AHR (Homo sapiens, UniProt P35869); test: In vitro assay 1: antagonism in human cell line (transactivation assay, U87 cells prestimulated with kynurenic acid, DRE firefly luciferase reporter); format: cell-based; parameters: host or cells: U87 glioblastoma cells, stably transfected with DRE firefly luciferase and renilla reporter constructs; conditions: 150 uM kynurenic acid, 20 hours, read-out: Assay 1: AHR-luc Hum Antagonism IC50
T1 sequence (P35869 11-848): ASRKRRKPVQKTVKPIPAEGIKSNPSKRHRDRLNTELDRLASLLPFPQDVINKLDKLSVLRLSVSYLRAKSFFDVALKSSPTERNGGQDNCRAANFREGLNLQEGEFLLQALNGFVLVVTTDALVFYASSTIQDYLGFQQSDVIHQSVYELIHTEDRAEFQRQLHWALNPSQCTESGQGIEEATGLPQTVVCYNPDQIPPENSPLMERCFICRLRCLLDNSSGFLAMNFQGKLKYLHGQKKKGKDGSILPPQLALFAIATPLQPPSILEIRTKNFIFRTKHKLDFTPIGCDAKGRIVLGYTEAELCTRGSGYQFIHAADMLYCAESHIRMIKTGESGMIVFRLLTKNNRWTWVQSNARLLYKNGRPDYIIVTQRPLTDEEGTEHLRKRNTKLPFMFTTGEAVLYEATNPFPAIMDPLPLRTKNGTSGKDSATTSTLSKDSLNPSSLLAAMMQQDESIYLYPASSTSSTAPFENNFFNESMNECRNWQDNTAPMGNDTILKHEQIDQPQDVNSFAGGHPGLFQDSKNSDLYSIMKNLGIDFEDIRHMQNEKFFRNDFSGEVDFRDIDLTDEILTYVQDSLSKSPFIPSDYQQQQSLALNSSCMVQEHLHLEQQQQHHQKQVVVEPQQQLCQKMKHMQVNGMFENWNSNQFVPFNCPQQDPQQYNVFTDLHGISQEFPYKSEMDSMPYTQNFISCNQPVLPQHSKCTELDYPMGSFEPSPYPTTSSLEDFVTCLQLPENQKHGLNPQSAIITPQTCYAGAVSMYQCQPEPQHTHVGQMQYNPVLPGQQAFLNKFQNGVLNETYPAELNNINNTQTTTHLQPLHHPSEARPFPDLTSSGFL
In short: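 Antagonism measured after kynurenic acid prestimulation in U87 cells that express AHR endogenously and stably harbor a firefly luciferase gene under DRE control plus a constitutive renilla construct. Positive and negative controls served for normalization.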

AHR [2] = molecular target: T1, AHR; test: In vitro assay 2: agonism in human cell line (transactivation assay, U87 cells, DRE firefly luciferase reporter); format: cell-based; parameters: host or cells: U87 glioblastoma cells, stably transfected with DRE firefly luciferase and renilla reporter constructs; conditions: no kynurenic acid, 20 hours, read-out: Assay 2: AHR-luc Hum Agonism IC50
In short: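 Agonist readout: DRE firefly luciferase, with constitutive renilla reporter, in stably transfected U87 cells expressing AHR endogenously. Normalization used positive control (300 uM kynurenic acid) and negative control.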

| IC50 (AHR [1]) [nM] | IC50 (AHR [2]) [nM] | SMILES |
| --- | --- | --- |
| 1100 | > 20000 | O=C(NC[C@H](O)C(F)(F)F)c1cc(-c2ccc(Cl)cc2)nn(-c2cnn(C3CCC3)c2)c1=O [Example 40, 6-(4-Chlorophenyl)-2-(1-cyclobutyl-1H-pyrazol-4-yl)-3-oxo-N-[(2S)-3,3,3-trifluoro-2-hydroxypropyl]-2,3-dihydropyridazine-4-carboxamide] |
| 304 | > 20000 | O=C(N[C@H](CO)C(F)(F)F)c1cc(-c2ccc(CF)cc2)nn(-c2cccnc2)c1=O [Example 282, 6-[4-(Fluoromethyl)phenyl]-3-oxo-2-(pyridin-3-yl)-N-[(2R)-1,1,1-trifluoro-3-hydroxypropan-2-yl]-2,3-dihydropyridazine-4-carboxamide] |
| 12.3 | > 20000 | O=C(N[C@@H]1COC[C@@H]1O)c1cc(-c2ccc(C(F)(F)F)cc2)nn(-c2cccnc2)c1=O (racemic) [Example 107, N-[(3RS,4RS)-4-Hydroxytetrahydrofuran-3-yl]-3-oxo-2-(pyridin-3-yl)-6-[4-(trifluoromethyl)phenyl]-2,3-dihydropyridazine-4-carboxamide] |
| 9.54 | > 20000 | Cn1cc(-n2nc(-c3ccc(Cl)cc3)cc(C(=O)N[C@H]3CCC[C@@H]3O)c2=O)cn1 (relative stereo) [Example 51, 6-(4-Chlorophenyl)-N-[(trans)-2-hydroxycyclopentyl]-2-(1-methyl-1H-pyrazol-4-yl)-3-oxo-2,3-dihydropyridazine-4-carboxamide] |
| 1970 | > 20000 | O=C(N[C@H]1COC[C@H]1O)c1cc(-c2ccc(C(F)F)nc2)nn(-c2cccnc2)c1=O (single isomer, unassigned) [Example 183, 6-[6-(Difluoromethyl)pyridin-3-yl]-N-[(cis)-4-hydroxytetrahydrofuran-3-yl]-3-oxo-2-(pyridin-3-yl)-2,3-dihydropyridazine-4-carboxamide] |
| 1.92 | > 20000 | CC(C)(O)C(NC(=O)c1cc(-c2ccc(C(F)(F)F)cc2)nn(-c2cccnc2)c1=O)C(F)(F)F (centres unmarked) [Example 213, 3-Oxo-2-(pyridin-3-yl)-N-(1,1,1-trifluoro-3-hydroxy-3-methylbutan-2-yl)-6-[4-(trifluoromethyl)phenyl]-2,3-dihydropyridazine-4-carboxamide] |
| 0.504 | > 20000 | C[C@@H](NC(=O)c1cc(-c2ccc(Cl)cc2)nn(-c2cnsc2)c1=O)C(C)(C)O [Example 326, 6-(4-Chlorophenyl)-N-[(2R)-3-hydroxy-3-methylbutan-2-yl]-3-oxo-2-(1,2-thiazol-4-yl)-2,3-dihydropyridazine-4-carboxamide] |
| 36 | > 20000 | COC[C@@H](CO)NC(=O)c1cc(-c2ccc(Cl)cc2)nn(-c2cncc(F)c2)c1=O [Example 85, 6-(4-Chlorophenyl)-2-(5-fluoropyridin-3-yl)-N-[(2R)-1-hydroxy-3-methoxypropan-2-yl]-3-oxo-2,3-dihydropyridazine-4-carboxamide] |
| 31.7 | > 20000 | O=C(N[C@H]1COC[C@@H]1O)c1cc(-c2ccc(Cl)cc2)nn(-c2cccnc2)c1=O (single isomer, unassigned; enantiomer 1) [Example 169, 6-(4-Chlorophenyl)-N-[(trans)-4-hydroxytetrahydrofuran-3-yl]-3-oxo-2-(pyridin-3-yl)-2,3-dihydropyridazine-4-carboxamide, Enantiomer 1] |
| 602 | > 20000 | C[C@@H](CO)NC(=O)c1cc(-c2ccc(CF)cc2)nn(-c2cccnc2)c1=O [Example 285, 6-[4-(Fluoromethyl)phenyl]-N-[(2S)-1-hydroxypropan-2-yl]-3-oxo-2-(pyridin-3-yl)-2,3-dihydropyridazine-4-carboxamide] |
| 1.33 | > 20000 | Cn1cc(-n2nc(-c3ccc(OC(F)F)cc3)cc(C(=O)NC(C(C)(C)O)C(F)(F)F)c2=O)cn1 (single isomer, unassigned) [Example 306, 6-[4-(Difluoromethoxy)phenyl]-2-(1-methyl-1H-pyrazol-4-yl)-3-oxo-N-(1,1,1-trifluoro-3-hydroxy-3-methylbutan-2-yl)-2,3-dihydropyridazine-4-carboxamide] |
| 0.599 | > 20000 | O=C(N[C@H](CO)C(F)(F)F)c1cc(-c2ccc(Cl)cc2)nn(-c2cnsc2)c1=O [Example 198, 6-(4-Chlorophenyl)-3-oxo-2-(1,2-thiazol-4-yl)-N-[(2R)-1,1,1-trifluoro-3-hydroxypropan-2-yl]-2,3-dihydropyridazine-4-carboxamide] |
| 9.52 | > 20000 | CCC(CO)NC(=O)c1cc(-c2ccc(C)cc2)nn(-c2cnn(C)c2)c1=O (centres unmarked) [Example 4, N-(1-Hydroxybutan-2-yl)-6-(4-methylphenyl)-2-(1-methyl-1H-pyrazol-4-yl)-3-oxo-2,3-dihydropyridazine-4-carboxamide] |
| 56.8 | > 20000 | CC(C)(O)CNC(=O)c1cc(-c2ccc(C(F)(F)F)cc2)nn(-c2cn[nH]c2)c1=O [Example 266, N-(2-Hydroxy-2-methylpropyl)-3-oxo-2-(1H-pyrazol-4-yl)-6-[4-(trifluoromethyl)phenyl]-2,3-dihydropyridazine-4-carboxamide] |
| 163 | > 20000 | O=C(NC(CO)CO)c1cc(-c2ccc(Cl)cc2)nn(-c2cncc(F)c2)c1=O [Example 84, 6-(4-Chlorophenyl)-N-(1,3-dihydroxypropan-2-yl)-2-(5-fluoropyridin-3-yl)-3-oxo-2,3-dihydropyridazine-4-carboxamide] |
| 1.64 | > 20000 | Cn1cc(-n2nc(-c3ccc(OC(F)F)cc3)cc(C(=O)NC(C(C)(C)O)C(F)(F)F)c2=O)cn1 (centres unmarked) [Example 305, 6-[4-(Difluoromethoxy)phenyl]-2-(1-methyl-1H-pyrazol-4-yl)-3-oxo-N-(1,1,1-trifluoro-3-hydroxy-3-methylbutan-2-yl)-2,3-dihydropyridazine-4-carboxamide] |
| 794 | > 20000 | C[C@@H](CO)NC(=O)c1cc(-c2ccc(C(F)F)nc2)nn(-c2cccnc2)c1=O [Example 180, 6-[6-(Difluoromethyl)pyridin-3-yl]-N-[(2S)-1-hydroxypropan-2-yl]-3-oxo-2-(pyridin-3-yl)-2,3-dihydropyridazine-4-carboxamide] |
| 25.6 | > 20000 | Cn1cc(-n2nc(-c3ccc(OC(F)(F)F)cc3)cc(C(=O)N[C@@H]3COC[C@@H]3O)c2=O)cn1 (single isomer, unassigned; enantiomer 1) [Example 56, N-[(cis)-4-Hydroxytetrahydrofuran-3-yl]-2-(1-methyl-1H-pyrazol-4-yl)-3-oxo-6-[4-(trifluoromethoxy)phenyl]-2,3-dihydropyridazine-4-carboxamide, Enantiomer 1] |
| 106 | > 20000 | C[C@H](CO)NC(=O)c1cc(-c2ccc(Cl)cc2)nn(-c2cncc(F)c2)c1=O [Example 81, 6-(4-Chlorophenyl)-2-(5-fluoropyridin-3-yl)-N-[(2R)-1-hydroxypropan-2-yl]-3-oxo-2,3-dihydropyridazine-4-carboxamide] |
